Test results as given in ChEMBL document CHEMBL1128056, “Methanodibenzosuberylpiperazines as potent multidrug resistance reversal agents” (Bioorg Med Chem Lett, 1995).

Key:
CHRC5 cell line [1] = experiment: Tested for in vitro proliferation and viability of multidrug resistant CHRC5 Chinese hamster cells in the presence and absence of doxorubicin in a modified MTT assay; format: functional, cell-based, Cricetulus griseus
[2] = Binding affinity to glycoprotein p was tested
[3] = Half-life at pH 2.0 and 37 degree C; format: ADME; details: buffer
CHRC5 cell line [4] = experiment: Compound was tested for its cytotoxic effect on CHRC5 Chinese hamster cells at a dose of 1 uM; not cytotoxic; format: functional, cell-based; details: Cricetulus griseus

**Q.** With `OC(COc1cccc2ncccc12)CN1CCN(C2c3ccccc3C3C(c4ccccc42)C3(F)F)CC1` (stereo in doubt; form 5) [listing 1 of 2 here] as the compound, how does the EC50 (CHRC5 cell line [1]; chrc5) read?
**A.** Its EC50 is 20.7 nM.

**Q.** And the IC50 [2]?
**A.** Its IC50 is 40 nM.

**Q.** Which results are given for `OC(COc1cccc2ncccc12)CN1CCN(C2c3ccccc3C3C(c4ccccc42)C3(Cl)Cl)CC1` (stereo in doubt; form 1)?
**A.** EC50 (CHRC5 cell line [1]; Cricetulus griseus, CHRC5): 100 nM; half-life [3]: > 72 h

**Q.** With `OC(COc1cccc2ncccc12)CN1CCN(C2c3ccccc3C3C(c4ccccc42)C3(Cl)Cl)CC1` (racemic) as the compound, how does the EC50 (CHRC5 cell line [1]; chrc5) read?
**A.** Its EC50 is 70 nM.

**Q.** With `OC(COc1cccc2ncccc12)CN1CCN(C2c3ccccc3CCc3ccccc32)CC1` (stereo not drawn) as the compound, how does the EC50 (CHRC5 cell line [1]; Cricetulus griseus, CHRC5) read?
**A.** The EC50 was 65 nM.

**Q.** Which EC50 (CHRC5 cell line [1]; chrc5) does the source give for `OC(COc1cccc2ncccc12)CN1CCN(C2c3ccccc3C3C(c4ccccc42)C3(F)F)CC1` (single isomer, unassigned) here?
**A.** The EC50 was 190 nM.

**Q.** For `OC(COc1cccc2ncccc12)CN1CCN(C2c3ccccc3C3C(c4ccccc42)C3(F)F)CC1` (stereo in doubt; form 2) [listing 1 of 2 here], which Activity (CHRC5 cell line [4]) is on record?
**A.** Its Activity is “Non-toxic”.

**Q.** Which EC50 (CHRC5 cell line [1]; Cricetulus griseus, CHRC5) does the source give for `COc1ccc(CCN(C)CCCC(C#N)(c2ccc(OC)c(OC)c2)C(C)C)cc1OC` (stereo not drawn) here?
**A.** Its EC50 is 1200 nM.

**Q.** Which EC50 (CHRC5 cell line [1]; chrc5) does the source give for `OC(COc1cccc2ncccc12)CN1CCN(C2c3ccccc3C3C(c4ccccc42)C3(F)F)CC1` (stereo in doubt; form 3) here?
**A.** The EC50 was 180 nM.

**Q.** Which EC50 (CHRC5 cell line [1]; chrc5) does the source give for `OC(COc1cccc2ncccc12)CN1CCN(C2c3ccccc3C3C(c4ccccc42)C3(F)F)CC1` (stereo in doubt; form 2) [listing 2 of 2 here] here?
**A.** The EC50 was 60 nM.

**Q.** Which Activity (CHRC5 cell line [4]) does the source give for `OC(COc1cccc2ncccc12)CN1CCN(C2c3ccccc3C3C(c4ccccc42)C3(F)F)CC1` (stereo in doubt; form 1) [listing 1 of 2 here] here?
**A.** The Activity was “Non-toxic”.

**Q.** For `OC(COc1cccc2ncccc12)CN1CCN(C2c3ccccc3C3C(c4ccccc42)C3(Cl)Cl)CC1` (stereo in doubt; form 2), which EC50 (CHRC5 cell line [1]; chrc5) is on record?
**A.** The EC50 was 55 nM.

**Q.** With `OC(COc1cccc2ncccc12)CN1CCN(C2c3ccccc3C3CC3c3ccccc32)CC1` (stereo not drawn) as the compound, how does the EC50 (CHRC5 cell line [1]; Cricetulus griseus, CHRC5) read?
**A.** Its EC50 is 40 nM.

**Q.** With `OC(COc1cccc2ncccc12)CN1CCN(C2c3ccccc3C3C(c4ccccc42)C3(F)F)CC1` (stereo in doubt; form 4) as the compound, how does the EC50 (CHRC5 cell line [1]; chrc5) read?
**A.** Its EC50 is 200 nM.

**Q.** For `OC(COc1cccc2ncccc12)CN1CCN(C2c3ccccc3C3C(c4ccccc42)C3(F)F)CC1` (stereo in doubt; form 1) [listing 2 of 2 here], which EC50 (CHRC5 cell line [1]; chrc5) is on record?
**A.** Its EC50 is 50 nM.

**Q.** And the half-life [3]?
**A.** Its half-life is greater than 72 h.

**Q.** For `OC(COc1cccc2ncccc12)CN1CCN(C2c3ccccc3C3C(c4ccccc42)C3(F)F)CC1` (stereo in doubt; form 5) [listing 2 of 2 here], which Activity (CHRC5 cell line [4]) is on record?
**A.** Its Activity is “Non-toxic”.
